Assay results: patent US10214546B2, “Btk inhibitors” (MERCK SHARP & DOHME CORP., priority 2014, dated 2019)
Where two headings read alike, the source gives them in different places.

How the values were obtained:
[1] = biological target: BTK enzyme (recombinant full-length BTK, hBTK) (Homo sapiens (Human), UniProt Q06187); experiment: BTK enzymatic activity LANCE TR-FRET assay; format: biochemical; conditions: 50 pM hBTK, 25 μM ATP, 2 μM biotin-A5-peptide; compound range 1 μM to 0.017 nM; read-out: BTK binding IC50
[2] = test system: adenosine uptake into HeLa cells; experiment: [3H]Adenosine uptake assay in HeLa cells; format: cell-based; conditions: compound range 10 μM to 0.032 nM
How it was run: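 IC50 came from a 4-parameter fit of counts per second over a ten-point, 1:3 titration (final 10 µM down to […]). Compound was applied 30 min at ambient temperature in HBSS/5% FBS before a 500 nM [3H]adenosine solution was added; uptake ran 60 min, read by Cytostar-T proximity scintillation.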

[3] = Homo sapiens, HeLa, [3H]adenosine accumulation in HeLa cells, read-out: ADU inhibition IC50
[4] = [3H]adenosine accumulation in HeLa cells, read-out: ADU inhibition IC50

BTK enzyme (recombinant full-length BTK, hBTK), sequence (Q06187 whole entry): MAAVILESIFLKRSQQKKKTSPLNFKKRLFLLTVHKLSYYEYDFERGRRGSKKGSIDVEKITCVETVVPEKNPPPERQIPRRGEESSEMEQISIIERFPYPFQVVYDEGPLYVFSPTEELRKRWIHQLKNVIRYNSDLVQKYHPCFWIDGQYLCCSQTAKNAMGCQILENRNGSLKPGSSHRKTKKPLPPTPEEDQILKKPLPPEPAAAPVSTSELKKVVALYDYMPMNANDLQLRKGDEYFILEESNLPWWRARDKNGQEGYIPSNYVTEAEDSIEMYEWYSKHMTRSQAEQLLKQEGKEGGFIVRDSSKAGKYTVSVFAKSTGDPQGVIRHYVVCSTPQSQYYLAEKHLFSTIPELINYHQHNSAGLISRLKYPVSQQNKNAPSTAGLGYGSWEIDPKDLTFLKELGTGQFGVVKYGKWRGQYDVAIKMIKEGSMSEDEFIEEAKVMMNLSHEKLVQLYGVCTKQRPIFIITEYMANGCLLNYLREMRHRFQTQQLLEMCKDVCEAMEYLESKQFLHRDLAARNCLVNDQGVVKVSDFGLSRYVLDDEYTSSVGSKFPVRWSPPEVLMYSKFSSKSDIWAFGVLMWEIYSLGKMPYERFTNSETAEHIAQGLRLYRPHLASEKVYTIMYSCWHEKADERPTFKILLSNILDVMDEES

Row | SMILES | IC50 [1] [nM] | IC50 [2, 3] [nM] | IC50 [2, 4] [nM] | IC50 ([2]; Homo sapiens, HeLa, read-out: ADU inhibition IC50 (nM), [3H]adenosine accumulation in HeLa cells) [nM]
1 | C[C@@](O)(c1cccc(C(F)(F)F)c1)c1ccc(-c2nc([C@@H]3CC[C@H]4CCC(=O)N4C3)n3ccnc(N)c23)c(CO)c1 [Example 21, (6R,8aS)-6-(8-amino-1-(4-((S)-1-hydroxy-1-(3-(trifluoromethyl)phenyl)ethyl)-2-(hydroxymethyl)phenyl)imidazo[1,5-a]pyrazin-3-yl)hexahydroindolizin-3(2H)-one] | 5.8 | 7480 |  | 
2 | C[C@@](O)(c1ccc(-c2nc([C@@H]3CC[C@H]4CCC(=O)N4C3)n3c(Cl)cnc(N)c23)cc1)c1cccc(C2CC2)c1 [Example 117, (6R,8aS)-6-(8-amino-5-chloro-1-{4-[(1R)-1-(3-cyclopropylphenyl)-1-hydroxyethyl]phenyl}imidazo[1,5-a]pyrazin-3-yl)hexahydroindolizin-3(2H)-one] | 0.12 | 956 |  | 
3 | CC(O)(c1cccc(C(F)(F)F)c1)c1ccc(-c2nc([C@@H]3CC[C@H]4CCC(=O)N4C3)n3c(Cl)cnc(N)c23)c(F)c1 (stereo partly drawn) [Example 193, (6R,8aS)-6-[8-amino-5-chloro-1-(2-fluoro-4-{1-hydroxy-1-[3-(trifluoromethyl)phenyl]ethyl}phenyl)imidazo [1,5-a]pyrazin-3-yl]hexahydroindolizin-3(2H)-one] | 1.2 |  | 1860 | 
4 | CC(O)(c1ccc(-c2nc([C@@H]3CC[C@H]4CCC(=O)N4C3)n3ccnc(N)c23)cc1)c1cc(C(F)(F)F)cc(C(F)(F)F)c1 (stereo partly drawn) [Example 146, (6R,8aS)-6-[8-amino-1-(4-{1-[3,5-bis(trifluoromethyl)phenyl]-1-hydroxyethyl}phenyl)imidazo[1,5-a]pyrazin-3-yl]hexahydroindolizin-3(2H)-one] | 752 | 1490 |  | 
5 | C[C@@H]1OC(=O)N2C[C@H](c3nc(-c4ccc([C@@](C)(O)c5cccc(C(F)(F)F)c5)cc4)c4c(N)nccn34)OC[C@@H]12 [Example 9, (6R,8aS)-6-(8-amino-1-(4-((R)-1-hydroxy-1-(3-(trifluoromethyl)phenyl)ethyl)phenyl)imidazo[1,5-a]pyrazin-3-yl)-1-methyltetrahydrooxazolo[4,3-c][1,4]oxazin-3(1H)-one] | 13 | 5540 |  | 
6 | Nc1ncc(Cl)n2c([C@@H]3CC[C@H]4CCC(=O)N4C3)nc(-c3ccc(C(O)c4cc(C(F)(F)F)ccc4F)cc3)c12 (stereo partly shown) [Example 126] | 1000 | 1070 |  | 
7 | CC(O)(c1ccc(-c2nc([C@@H]3CC[C@H]4CCC(=O)N4C3)n3ccnc(N)c23)cc1)c1cccc(C2CC2(F)F)c1 (stereo partly drawn) [Example 159, (6R,8aS)-6-[8-amino-1-(4-{1-[3-(2,2-difluorocyclopropyl)phenyl]-1-hydroxyethyl}phenyl)imidazo[1,5-a]pyrazin-3-yl]hexahydroindolizin-3(2H)-one] | 0.1 |  | 1880 | 
8 | CC(O)(c1ccc(-c2nc([C@@H]3CC[C@H]4CCC(=O)N4C3)n3ccnc(N)c23)cc1)c1ccccc1C(F)(F)F (stereo partly drawn) [Example 31, (6R,8aS)-6-[8-amino-1-(4-{1-hydroxy-1-[2-(trifluoromethyl)phenyl]ethyl}phenyl)imidazo [1,5-a]pyrazin-3-yl]hexahydroindolizin-3(2H)-one] | 78.3 | 4810 |  | 
9 | NC(=O)C(O)(c1ccc(-c2nc([C@@H]3CC[C@H]4CCC(=O)N4C3)n3ccnc(N)c23)cc1)c1cccc(C(F)(F)F)c1 (stereo partly drawn) [Example 96, 2-(4-{8-amino-3-[(6R,8aS)-3-oxooctahydroindolizin-6-yl]imidazo[1,5-a]pyrazin-1-yl}phenyl)-2-hydroxy-2-[3-(trifluoromethyl)phenyl] acetamide] | 576 |  |  | 7140
10 | CC(O)(c1cccc(C(F)F)c1)c1ccc(-c2nc([C@@H]3CC[C@H]4CCC(=O)N4C3)n3c(F)cnc(N)c23)c(F)c1 (stereo partly drawn) [Example 207, (6R,8aS)-6-[8-amino-1-(4-{1-[3-(difluoromethyl)phenyl]-1-hydroxyethyl}-2-fluorophenyl)-5-fluoroimidazo[1,5-a]pyrazin-3-yl]hexahydroindolizin-3(2H)-one] | 459 |  | 933 | 
11 | CC(O)(c1cccc(C(F)(F)F)c1)c1ccc(-c2nc([C@@H]3CC[C@H]4CCC(=O)N4C3)n3c(F)cnc(N)c23)c(F)c1 (stereo partly drawn) [Example 183, (6R,8aS)-6-[8-amino-5-fluoro-1-(2-fluoro-4-{1-hydroxy-1-[3-(trifluoromethyl)phenyl]ethyl}phenyl)imidazo [1,5-a]pyrazin-3-yl]hexahydroindolizin-3(2H)-one] | 324 |  | 561 | 
12 | C[C@@](O)(c1ccc(-c2nc([C@@H]3CC[C@H]4C(C(F)(F)F)CC(=O)N4C3)n3ccnc(N)c23)cc1)c1cccc(C(F)F)c1 (stereo partly drawn) [Example 182, (1R,6R,8aS)-6-[8-amino-1-(4-{(1R)-1-[3-(difluoromethyl)phenyl]-1-hydroxyethyl}phenyl)imidazo[1,5-a]pyrazin-3-yl]-1-(trifluoromethyl) hexahydroindolizin-3(2H)-one] | 0.43 | 2800 |  | 
13 | C[C@@](O)(c1ccccc1)c1ccc(-c2nc([C@@H]3CC[C@H]4CCC(=O)N4C3)n3ccnc(N)c23)cc1 [Example 2, (6R,8aS)-6-(8-amino-1-(4-((R)-1-hydroxy-1-phenylethyl)phenyl)imidazo[1,5-a]pyrazin-3-yl)hexahydroindolizin-3(2H)-one] | 1.6 | 6350 |  | 
14 | CC(O)(c1cccc(C(F)(F)F)c1)c1ccc(-c2nc([C@@H]3CC[C@H]4CCC(=O)N4C3)n3c(Cl)cnc(N)c23)c(F)c1 (stereo partly drawn) [Example 190, (6R,8aS)-6-[8-amino-5-chloro-1-(2-fluoro-4-{1-hydroxy-1-[3-(trifluoromethyl)phenyl]ethyl}phenyl)imidazo [1,5-a]pyrazin-3-yl]hexahydroindolizin-3(2H)-one] | 310 |  | 316 | 
15 | CC(C)(c1cccc([C@](C)(O)c2ccc(-c3nc([C@@H]4CC[C@H]5CCC(=O)N5C4)n4c(Cl)cnc(N)c34)cc2)c1)C(F)(F)F [Example 124, (6R,8aS)-6-[8-amino-5-chloro-1-(4-{(1R)-1-hydroxy-1-[3-(2,2,2-trifluoro-1,1-dimethylethyl)phenyl]ethyl}phenyl)imidazo[1,5-a]pyrazin-3-yl]hexahydroindolizin-3(2H)-one] | 1.2 | 1450 |  | 

The remaining compounds from weak to strong by IC50 [1], led by results:

Row | IC50 [1] [nM] | IC50 [2, 3] [nM] | IC50 [2, 4] [nM] | SMILES | IC50 ([2]; Homo sapiens, HeLa, read-out: ADU inhibition IC50 (nM), [3H]adenosine accumulation in HeLa cells) [nM]
16 | 256 | 6950 |  | CC(C)C(C)(O)c1ccc(-c2nc([C@@H]3CC[C@H]4CCC(=O)N4C3)n3ccnc(N)c23)cc1 (stereo partly drawn) [Example 14, (6R,8aS)-6-{8-amino-1-[4-(1-hydroxy-1,2-dimethylpropyl)phenyl]imidazo[1,5-a]pyrazin-3-yl}hexahydroindolizin-3(2H)-one] | 
17 | 117 | 945 |  | CC(C)(c1cccc([C@@](C)(O)c2ccc(-c3nc([C@@H]4CC[C@H]5CCC(=O)N5C4)n4c(Cl)cnc(N)c34)cc2)c1)C(F)(F)F [Example 123, (6R,8aS)-6-[8-amino-5-chloro-1-(4-{(1S)-1-hydroxy-1-[3-(2,2,2-trifluoro-1,1-dimethylethyl)phenyl]ethyl}phenyl)imidazo[1,5-a]pyrazin-3-yl]hexahydroindolizin-3(2H)-one] | 
18 | 110 |  | 522 | CC(O)(c1cccc(C(F)F)c1)c1ccc(-c2nc([C@@H]3CC[C@H]4CCC(=O)N4C3)n3ccnc(N)c23)c(F)c1 (stereo partly drawn) [Example 192, (6R,8aS)-6-(8-amino-1-(4-{1-[3-(difluoromethyl)phenyl]-1-hydroxyethyl}-2-fluorophenyl)imidazo[1,5-a]pyrazin-3-yl]hexahydroindolizin-3(2H)-one] | 
19 | 15 | 463 |  | CC(C)c1cccc([C@@](C)(O)c2ccc(-c3nc([C@@H]4CC[C@H]5CCC(=O)N5C4)n4ccnc(N)c34)cc2)c1 [Example 74, (6R,8aS)-6-[8-amino-1-(4-{(1S)-1-hydroxy-1-[3(1-methylethyl)phenyl]ethyl}phenyl)imidazo[1,5-a]pyrazin-3-yl]hexahydroindolizin-3(2H)-one] | 
20 | 10.7 | 1700 |  | Cc1cc([C@](C)(O)c2cccc(C(F)(F)F)c2)ccc1-c1nc([C@@H]2CC[C@H]3CCC(=O)N3C2)n2ccnc(N)c12 [Example 104, (6R,8aS)-6-[8-amino-1-(4-{(1S)-1-hydroxy-1-[3-(trifluoromethyl)phenyl]ethyl}-2-methylphenyl)imidazo [1,5-a]pyrazin-3-yl]hexahydroindolizin-3(2H)-one] | 
21 | 9.8 | 1240 |  | Nc1nccn2c([C@@H]3CC[C@H]4CCC(=O)N4C3)nc(-c3ccc(C(O)(c4cccc(C(F)(F)F)c4)C(F)(F)F)cc3)c12 (stereo partly drawn) [Example 27, (6R,8aS)-6-[8-amino-1-(4-{2,2,2-trifluoro-1-hydroxy-1-[3-(trifluoromethyl)phenyl]ethyl}phenyl)imidazo [1,5-a]pyrazin-3-yl]hexahydroindolizin-3(2H)-one] | 
22 | 3.4 | 1240 |  | Nc1nccn2c([C@@H]3CC[C@H]4CCC(=O)N4C3)nc(-c3ccc(C(O)(c4ccccc4)C(F)(F)F)cc3)c12 (stereo partly drawn) [Example 12, (6R,8aS)-6-(8-amino-1-(4-(2,2,2-trifluoro-1-hydroxy-1-phenethyl)phenyl)imidazo[1,5-a]pyrazin-3-yl)hexahydroindolizin-3(2H)-one] | 
23 | 0.63 | 6000 |  | CCOc1cc([C@](C)(O)c2cccc(C(F)(F)F)c2)cc(F)c1-c1nc([C@@H]2CC[C@H]3CCC(=O)N3C2)n2ccnc(N)c12 [Example 213, (6R,8aS)-6-[8-amino-1-(2-ethoxy-6-fluoro-4-{(1R)-1-hydroxy-1-[3-(trifluoromethyl)phenyl]ethyl}phenyl)imidazo [1,5-a]pyrazin-3-yl]hexahydroindolizin-3(2H)-one] | 
